Reference: US9714260B2, “Asymmetrical Si rhodamine and rhodol synthesis” (THE UNIVERSITY OF TOKYO, priority 2013, dated 2017)

Tests used:
[1] = Optical characteristics of Compound 10 and predicted compound after reaction with active oxygen; format: physicochemical; conditions: 1 μM in PBS (pH 7.4), 0.1% DMF
Experimental: The absorbance and fluorescence spectra (left side of FIG. 19) of 1 μM of compound 10 in PBS (pH 7.4) containing 0.1% DMF as a cosolvent, the absorbance and fluorescence spectra (right side of FIG. 19) of the compound predicted to be generated following a reaction of compound 10 and 1 μM active oxygen, and the optical characteristics of each compound were measured (Table 9).

[2] = Reactivity and selectivity of Compound 10 toward active-oxygen species
Experimental: Next, an analysis was carried out using the HPLC of a reaction induced by an active-oxygen-species. […] A sample was subjected to HPLC linear gradient elution (eluate: A/B=60/40—10 minutes—0/100; flow rate=1.0 mL/minute). Next, the selectivity of active-oxygen species of compound 10 was examined. The conditions of various active-oxygen species were as follows. H2O2: […] ONOO^−: […] O2^−: […] Hydroxy radical: H2O2 (final 1 mM) and FeClO4 (final 100 μM) were added.

HL60 cells = assay: Cell-imaging experiment using HL60 cells; format: cell-based; conditions: 1 μM probe, 1 mM H2O2 stimulation, 45 minutes
Experimental: HL60 cells were cultured. […] The fluorescence image was observed thereafter.

**Q.** With CC/[N+](=C1\C=CC2=C(c3ccccc3C)c3cc4c(cc3[Si](C)(C)C2=C1)N(C)CC4)c1ccc(O)cc1 [Compound 10, 2MeIndo-N-ethyl-phenol-SiR] as the compound, how does the Absmax [1] read?
**A.** 670 nm

**Q.** And the “selectivity of active-oxygen species” value ([2]; H2O2, −OCl, ONOO−, O2−, hydroxy radical)?
**A.** reacted selectively with ^−OCl and ONOO^−

**Q.** And the “reaction with −OCl (HPLC, ESI-MS analysis)” value ([2]; −OCl)?
**A.** produce the predicted reactant

**Q.** And the “increase in fluorescence after reaction with active-oxygen species” value ([2]; −OCl and ONOO−)?
**A.** 100 times

**Q.** What about the “increase in fluorescence inside cells relative to no stimulation” value (HL60 cells) of the same compound?
**A.** about four
